24 compounds from patent publication US20120095055A1, “HEXAHYDROCYCLOPENTYL[f]INDAZOLE 5-HYDROXYMETHYL ETHANOLS AND DERIVATIVES THEREOF AS SELECTIVE GLUCOCORTICOID RECEPTOR MODULATORS” (Merck Sharp & Dohme, Corp., priority 2009, published 2012) can be followed below.

The experiment has as its target T1, human GR (Homo sapiens, UniProt P04150).
T1 construct: naturally expresses the human GR; endogenous in cells
T1 sequence (P04150 1-777): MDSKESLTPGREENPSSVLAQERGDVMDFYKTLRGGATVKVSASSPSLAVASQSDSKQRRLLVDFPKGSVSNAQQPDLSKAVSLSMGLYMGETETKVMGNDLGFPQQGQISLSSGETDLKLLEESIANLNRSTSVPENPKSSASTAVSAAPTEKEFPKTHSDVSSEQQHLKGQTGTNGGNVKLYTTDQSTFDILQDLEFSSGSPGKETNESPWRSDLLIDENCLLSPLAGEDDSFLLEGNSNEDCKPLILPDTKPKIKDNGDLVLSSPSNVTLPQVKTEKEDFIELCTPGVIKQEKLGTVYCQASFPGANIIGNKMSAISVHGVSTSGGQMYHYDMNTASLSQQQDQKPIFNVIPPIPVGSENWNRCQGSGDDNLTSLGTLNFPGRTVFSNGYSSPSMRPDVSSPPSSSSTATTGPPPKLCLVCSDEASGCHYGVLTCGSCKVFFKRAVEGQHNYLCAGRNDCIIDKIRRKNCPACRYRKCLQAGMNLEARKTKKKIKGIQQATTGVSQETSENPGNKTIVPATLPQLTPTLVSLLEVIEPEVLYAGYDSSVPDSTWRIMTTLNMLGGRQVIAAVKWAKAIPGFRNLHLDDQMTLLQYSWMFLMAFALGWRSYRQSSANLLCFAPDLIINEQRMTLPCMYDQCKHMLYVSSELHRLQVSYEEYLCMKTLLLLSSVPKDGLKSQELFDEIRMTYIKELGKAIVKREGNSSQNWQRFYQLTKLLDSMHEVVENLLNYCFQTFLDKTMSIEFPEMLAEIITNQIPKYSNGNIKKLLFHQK
The experiment is described as follows: Trans-Activation Modulation of Glucocorticoid Receptor Assay (GRAMMER), MMTV-LUC reporter in A549 cells. In kind it is cell-based. Conditions: for Transactivation A549 Cells GRAMMER Emax (%): Emax relative to the activity obtained with 300 nM dexamethasone; for EC50: inflection point (IP), MMTV-LUC reporter, read-out: Transactivation A549 Cells GRAMMER IP; for Emax: A549, Emax relative to the activity obtained with 300 nM dexamethasone, read-out: Transactivation A549 Cells GRAMMER Emax (%). From the text: This assay assesses the ability of test compounds to control transcription from the MMTV-LUC reporter gene in lung adenocarcinoma A549 cells or HeLa cells, a human […] cell line that naturally expresses the human GR. The assay measures induction of a modified MMTV LTR/promoter linked to the LUC reporter gene.
The routine transient assay consists of plating 7,000-25,000 cells/well of a white, clear-bottom 96-well plate. Alternatively, 384-well plates can be used at a cell concentration of 10,000/well. The media that the cells are plated in is “exponential growth medium” which consists of phenol red-free RPMI1640 containing 10% FBS, 4 mM L-glutamine, 20 mM HEPES, 10 ug/mL human insulin, and 20 ug/mL gentamicin. Incubator conditions are 37° C. and 5% CO2. The transfection is done in batch mode. The cells are trypsinized and counted to the right cell number in the proper amount of fresh media. It is then gently mixed with the FuGene6/DNA mix and plated onto the 96 or 384-well plate, all the wells receive 100 uL or 40 uL, respectively, of medium+lipid/DNA complex then incubated 37° C. overnight. The transfection cocktail consists of serum-free OptiMEM, FuGene6 reagent and DNA. The manufacturer's (Roche Biochemical) protocol for cocktail setup is as follows: The lipid to DNA ratio is approximately 2.5:1 and the incubation time is 20 min at room temperature. Sixteen to 24 hours after transfection, the cells are treated with dexamethasone to a final concentration of 10 nM as well as the compound of interest, such that final DMSO (vehicle) concentration is equal to or less than 1%. Each plate also contains samples that are treated with 10 nM dexamethasone alone, which is used as the 100% activity control. The cells are exposed to the compounds for 24 hours. After 24 hours, the cells are lysed by a Promega cell culture lysis buffer for approximately 30 min and then the luciferase activity in the extracts is assayed in the 96-well format luminometer. In 384-well format, Steady-Glo (Promega) or Steady-Lite (PerkinElmer) can be used by adding an equal volume of reagent to the media present in each well. Activity induced by 10 nM dexamethasone alone is set at 100% activity. Antagonist activity is calculated by determining the decrease in dexamethasone-induced activity in response to compound treatment relative to samples that were treated with dexamethasone alone. Results are expressed as % inhibition of 10 nM dexamethasone activity or as fold of 10 nM dexamethasone activity. This transactivation assay can be performed in an agonist and antagonist mode to identify these different activities.
Activity of test compounds is calculated as the Emax relative to the activity obtained with 300 nM dexamethasone. Activity of test compounds is calculated as the Emax relative to the activity obtained with 300 nM DEX. The exemplified tissue selective glucocorticoid receptor modulators of the present invention display agonist activity in this assay of greater than 5% and less than 100%, and maximal transactivation activity less then maximal transrepression activity. […]

As usually defined, the Emax is the size of the effect at its maximum, as opposed to the concentration needed.

`C[C@]12Cc3cnn(-c4cccc(F)c4)c3C=C1CC[C@@]2(CO)CC(O)c1ccccn1` (single isomer, unassigned) [Example 19b]: the “Transactivation A549 Cells GRAMMER Emax (%)” value is recorded as 24.2% and the EC50 was found to be 94.8 nM.

For `C[C@]12Cc3cnn(-c4ccc(F)cc4)c3C=C1CC[C@@]2(CO)CC(O)C1CC1` (single isomer, unassigned) [Example 20a, 1-cyclopropyl-2-[(4αS)-1-(4-fluorophenyl)-5-(hydroxymethyl)-4α-methyl-1,4,4α,5,6,7-hexahydrocyclopenta[f]indazol-5-yl]ethanol], the “Transactivation A549 Cells GRAMMER Emax (%)” value stood at 23.1% and the EC50 came to 187 nM.

Take `C[C@]12Cc3cnn(-c4ccc(F)cc4)c3C=C1CC[C@@]2(CO)CC(O)C1CC1` (single isomer, unassigned) [Example 20b, 1-cyclopropyl-2-[(4αS)-1-(4-fluorophenyl)-5-(hydroxymethyl)-4α-methyl-1,4,4α,5,6,7-hexahydrocyclopenta[f]indazol-5-yl]ethanol]: the “Transactivation A549 Cells GRAMMER Emax (%)” value came to 11.3% and the EC50 came to 808 nM.

As to `COc1cccnc1C(O)C[C@]1(CO)CCC2=Cc3c(cnn3-c3ccc(F)cc3)C[C@@]21C` (single isomer, unassigned) [Example 21a], the “Transactivation A549 Cells GRAMMER Emax (%)” value is 32.4% and the EC50 is 152 nM.

Regarding `COc1cccnc1C(O)C[C@]1(CO)CCC2=Cc3c(cnn3-c3ccc(F)cc3)C[C@@]21C` (single isomer, unassigned) [Example 21b], the “Transactivation A549 Cells GRAMMER Emax (%)” value is recorded as 64.8% and the EC50 came to 40.2 nM.

As for `C[C@]12Cc3cnn(-c4ccc(F)cc4)c3C=C1CC[C@@]2(CO)CC(O)c1ccc(F)cn1` (single isomer, unassigned) [Example 22a], the Emax amounted to 63.2% and the EC50 was 28.8 nM.

Take `C[C@]12Cc3cnn(-c4ccc(F)cc4)c3C=C1CC[C@@]2(CO)CC(O)c1ccc(F)cn1` (single isomer, unassigned) [Example 22b]: the “Transactivation A549 Cells GRAMMER Emax (%)” value is recorded as 74.3% and the EC50 was found to be 64.2 nM.

For `C[C@]12Cc3cnn(-c4ccccc4)c3C=C1CC[C@@]2(CO)CC(O)c1ccccn1` (single isomer, unassigned) [Example 23a], the Emax was determined as 39.4% and the EC50 was determined as 49.7 nM.

Take `C[C@]12Cc3cnn(-c4ccccc4)c3C=C1CC[C@@]2(CO)CC(O)c1ccccn1` (single isomer, unassigned) [Example 23b]: the “Transactivation A549 Cells GRAMMER Emax (%)” value is 47.7% and the EC50 was 63.2 nM.

Take `COc1ccc(C(O)C[C@]2(CO)CCC3=Cc4c(cnn4-c4ccc(F)cc4)C[C@@]32C)nc1` (single isomer, unassigned) [Example 24a]: the Emax is 7.6% and the EC50 turned out to be 470 nM.

On to `COc1ccc(C(O)C[C@]2(CO)CCC3=Cc4c(cnn4-c4ccc(F)cc4)C[C@@]32C)nc1` (single isomer, unassigned) [Example 24b], for which the “Transactivation A549 Cells GRAMMER Emax (%)” value came to 4.5% and the EC50 was 1000 nM.

Take `CC(O)(C[C@]1(CO)CCC2=Cc3c(cnn3-c3ccc(F)cc3)C[C@@]21C)c1cccnc1` (single isomer, unassigned) [Example 25a]: the Emax is 7.9% and the EC50 was 291 nM.

Consider `CC(O)(C[C@]1(CO)CCC2=Cc3c(cnn3-c3ccc(F)cc3)C[C@@]21C)c1cccnc1` (single isomer, unassigned) [Example 25b], for which the “Transactivation A549 Cells GRAMMER Emax (%)” value is 7.6% and the EC50 is 401 nM.

Take `COc1cccnc1C(O)C[C@]1(CO)CCC2=Cc3c(cnn3-c3cccc(F)c3)C[C@@]21C` (single isomer, unassigned) [Example 26a]: the “Transactivation A549 Cells GRAMMER Emax (%)” value is 24.8% and the EC50 was determined as 144 nM.

As to `COc1cccnc1C(O)C[C@]1(CO)CCC2=Cc3c(cnn3-c3cccc(F)c3)C[C@@]21C` (single isomer, unassigned) [Example 26b], the “Transactivation A549 Cells GRAMMER Emax (%)” value stood at 4.3% and the EC50 came out at 653 nM.

Turning to `C[C@]12Cc3cnn(-c4cccc(F)c4)c3C=C1CC[C@@]2(CO)CC(O)c1cccnc1` (single isomer, unassigned) [Example 27a], the “Transactivation A549 Cells GRAMMER Emax (%)” value was found to be 6.8% and the EC50 is 357 nM.

In the case of `C[C@]12Cc3cnn(-c4cccc(F)c4)c3C=C1CC[C@@]2(CO)CC(O)c1cccnc1` (single isomer, unassigned) [Example 27b], the “Transactivation A549 Cells GRAMMER Emax (%)” value was 15.4% and the EC50 turned out to be 634 nM.

`C[C@]12Cc3cnn(-c4ccc(F)cc4)c3C=C1CC[C@@]2(CO)CC(O)C(F)(F)F` (single isomer, unassigned) [Example 28a]: the Emax was determined as 60.4% and the EC50 worked out at 107 nM.

For `C[C@]12Cc3cnn(-c4ccc(F)cc4)c3C=C1CC[C@@]2(CO)CC(O)C(F)(F)F` (single isomer, unassigned) [Example 28b], the “Transactivation A549 Cells GRAMMER Emax (%)” value is reported as 42.3% and the EC50 came to 107 nM.

As to `C[C@]12Cc3cnn(-c4ccccc4)c3C=C1CC[C@@]2(CO)CC(O)c1cccnc1` (single isomer, unassigned) [Example 29a], the “Transactivation A549 Cells GRAMMER Emax (%)” value is reported as 30.7% and the EC50 was determined as 168 nM.

Turning to `C[C@]12Cc3cnn(-c4ccccc4)c3C=C1CC[C@@]2(CO)CC(O)c1cccnc1` (single isomer, unassigned) [Example 29b], the “Transactivation A549 Cells GRAMMER Emax (%)” value worked out at 13.7% and the EC50 was found to be 121 nM.

Turning to `C[C@]12Cc3cnn(-c4ccc(F)cc4)c3C=C1CC[C@@]2(CO)CC(O)c1ccccc1F` (stereo partly drawn) [Example 4, 1-(2-fluorophenyl)-2-[(4αS,5R)-1-(4-fluorophenyl)-5-(hydroxymethyl)-4α-methyl-1,4,4α,5,6,7-hexahydrocyclopenta[f]indazol-5-yl]ethanol], the Emax turned out to be 80.3% and the EC50 turned out to be 39.7 nM.

Consider `C[C@]12Cc3cnn(-c4ccc(F)cc4)c3C=C1CC[C@@]2(CO)CC(O)c1cccc(Cl)c1` (stereo partly drawn) [Example 8, 1-(3-chlorophenyl)-2-[(4αS,5R)-1-(4-fluorophenyl)-5-(hydroxymethyl)-4α-methyl-1,4,4α,5,6,7-hexahydrocyclopenta[f]indazol-5-yl]ethanol], for which the Emax came out at 56% and the EC50 worked out at 32.2 nM.

For `C[C@]12Cc3cnn(-c4ccc(F)cc4)c3C=C1CC[C@@]2(CO)CC(O)c1cc(F)cc(F)c1` (stereo partly drawn) [Example 9, 1-(3,5-difluorophenyl)-2-[(4αS,5R)-1-(4-fluorophenyl)-5-(hydroxymethyl)-4α-methyl-1,4,4α,5,6,7-hexahydrocyclopenta[f]indazol-5-yl]ethanol], the Emax was 80.3% and the EC50 was 3.2 nM.
